Data taken from ChEMBL document CHEMBL1150527, “Bifunctional antitumor agents: a DNA interactive enediyne from the pyrrolo[9,10-b]phenanthrene template” (Bioorg Med Chem Lett, 1997).

Legend:
Assay type in all cases: nucleic-acid assay
[1] = test system: Nucleic Acid; assay: DNA cleavage activity using supercoiled bacteriophage (piX174Rf I) DNA at 10e-3 M concentration (95% control)
[2] = test system: Nucleic Acid; assay: DNA cleavage activity using supercoiled bacteriophage (piX174Rf I) DNA at 10e-4 M concentration (95% control)
[3] = test system: Nucleic Acid; assay: DNA cleavage activity using supercoiled bacteriophage (piX174Rf I) DNA at 10e-5 M concentration (95% control)
[4] = test system: Nucleic Acid; assay: DNA cleavage activity using supercoiled bacteriophage (piX174Rf II) DNA at 10e-3 M concentration (5% control)
[5] = test system: Nucleic Acid; assay: DNA cleavage activity using supercoiled bacteriophage (piX174Rf II) DNA at 10e-4 M concentration (5% control)
[6] = test system: Nucleic Acid; assay: DNA cleavage activity using supercoiled bacteriophage (piX174Rf II) DNA at 10e-5 M concentration (5% control)
[7] = test system: Nucleic Acid; assay: DNA cleavage activity using supercoiled bacteriophage (piX174Rf III) DNA at 10e-3 M concentration (0% control)
[8] = test system: Nucleic Acid; assay: DNA cleavage activity using supercoiled bacteriophage (piX174Rf III) DNA at 10e-4 M concentration (0% control)
[9] = test system: Nucleic Acid; assay: DNA cleavage activity using supercoiled bacteriophage (piX174Rf III) DNA at 10e-5 M concentration (0% control)

Cleavage [1] | Cleavage [2] | Cleavage [3] | Cleavage [4] | Cleavage [5] | Cleavage [6] | Cleavage [7] | Cleavage [8] | Cleavage [9] | SMILES
7% | 45% | 79% | 88% | 55% | 21% | 5% | 0% | 0% | O=C(OCC1CC#C/C=C\C#CCC1)c1cc2c3ccccc3c3ccccc3c2[nH]1 (stereo not drawn)
15% | 78% | 93% | 82% | 22% | 7% | 3% | 0% | 0% | O=C(OCC1CC#C/C=C\C#CCC1)c1ccccc1 (stereo not drawn)
